Data published in patent publication US20200078379A1, “DEFEROXAMINE DERIVATIVES AS MEDICAMENTS” (BIOTECHNOLOGICKY USTAV AV CR, V.V.I., priority 2017, published 2020).
Read-outs that look alike come from different tables or passages of the source.

How the values were obtained:
[1] = system: non malignant cells (BJ); test: cellular proliferation in real time, Xcelligence technology; type: cell-based, human
Description: (§1) The ability of compound 2 to affect the proliferation and cell death induction in real time was monitored by the Xcelligence technology that detects changes in electrical impedance related to the cell number. In brief, special 16-well e-plates containing gold electrodes were filled with medium, blank values were recorded, and then 5.000 cells per well were seeded in the plate and let to attach for 2 hours, followed by the addition of compounds. The electrical impedance was then monitored over time in real-time every 15 minutes. In this case a line is drawn that reflects the cell number over time. […] We have seen a clear inhibition of proliferation with compound 2 at 1 μM, complete block of proliferation at 2 μM concentration, while the cytotoxic effect is seen at 5 μM (Table 9).

[2] = system: BT474 cells; test: AnnexinV/PI cell death assay; type: cell-based; details: 48 hrs
Description: (§2) To confirm such findings by an independent method, cell death-inducing potency (cytotoxic efficacy) of DFO and compound 2 have been tested via annexin V/PI staining commonly used as a measure of apoptotic/necrotic cell death. Briefly, cells were seeded in 12-well plate at 100,000 per well, incubated with the selected compounds for 48 hours, then floating cells were spun, adherent cells trypsinized and spun as well followed by the staining with AnnexinV-FITC and PI probes. Cells were then washed with PBS and measured via Fluorescence Activated Sorter.

[3] = system: BT549 cells; test: AnnexinV/PI cell death assay; type: cell-based; details: 48 hrs
Description: as §2

[4] = system: MCF7 cells; test: cellular proliferation in real time, Xcelligence technology; type: cell-based
Description: as §1

[5] = system: pancreatic cell line BxPC3; test: dose-effect relationship of drugs and mixtures, crystal violet assay, Median-Effect / Combination index; type: cell-based
Description: (§3) The potentiation of cytotoxic effect of compound 2 in combination with several cytostatics was evaluated. The dose-effect relationship of individual drugs and mixtures of compound 2 with paclitaxel, cis Pt (cis-platin), doxorubicin and fluorouracil was determined on human mammary gland cancer cell line MDA-MB-231 and pancreatic cell line BxPC3 by means of crystal violet assay. The linearized Median-Effect Plot of dose response line provided both parameters (IC50; trend line m(slope) value) of Median-Effect Equation for individual and combination treatment [ref: Theoretical basis, experimental design, and computerized simulation of synergism and antagonism in drug combination studies; Ting-Chao Chou: Pharmacol Rev. 58(3), 2006, 621-81; Erratum in Pharmacol Rev. 2007; 59(1), 124]:
(§4) Potentiation of combination effect of compound 2 was expressed for concentrations IC50, IC75, IC90, IC95 by calculation of Combination index (CI) applying Combination Index Theorem for mutually exclusive drugs. Overall CI was expressed by means of weighted average of IC50, IC75, IC90, IC95 [ref: Quantitative analysis of dose-effect relationships: the combined effects of multiple drugs or enzyme inhibitors; Ting-Chao Chou, Paul Talalay: Advances in Enzyme Regulation, Volume 22, 1984, Pages 27-55]: […]

[6] = system: human mammary gland cancer cell line MDA-MB-231; test: as above; type: cell-based; details: MDA-MB-231, crystal violet, 48 hours
Description: as §3, §4

[7] = system: MCF7 cells; test: AnnexinV/PI cell death assay; type: cell-based, human; details: for mean percentage of dead cells (AnnexinV/PI): 48 hrs
Description: Briefly, cells were seeded in 12-well plate at 100,000 per well, incubated with the selected compounds for 48 hours, then floating cells were spun, adherent cells trypsinized and spun as well followed by the staining with AnnexinV-FITC and PI probes. Cells were then washed with PBS and measured via Fluorescence Activated Sorter.

[8] = system: MCF7 cells; test: individual cell movement, Juli FL and Image J; type: cell-based, human
Description: Additionally, cells seeded identically as in example 26, were treated with 1 to 5 μM concentrations of compound 2 and movie was recorded via the Juli FL system, enabling monitoring of individual movement of cells. The movement was then analyzed by the Image J program to gain the average travelled distance within a specified time. We detected a significant reduction of the total length of travelled trajectory when cells were exposed to compound 2 (Table 12)

[9] = system: MCF7 cells; test: crystal violet assay, cellular viability; type: cell-based, human
Description: (§5) Compound 1 and compound 2 were tested in their efficacy to kill malignant MCF7 cancer cells. Briefly, 10.000 cells per well were seeded in a 96-well plat on one day and the next day selected compounds were added and incubated with the cells for 48 hrs. The cells were then fixed with 4% paraformaldehyde, stained with 0.05% crystal violet, washed with PBS, and solubilized in 1% SDS. The absorbance of the plate at 595 nm was then measured, quantifying the number of viable cells.
(§6) A number of compounds of the present invention were tested for cytotoxicity towards at least some of human breast cancer cell lines (MCF7, MDA-MB-231), human fibroblast (BJ) and murine triple negative breast cancer cell line 4T1 (Table 2).

[10] = system: MDA-MB-231 cells; test: crystal violet assay, cellular viability; type: cell-based, human
Description: as §5, §6

[11] = system: SK-OV-3 cells; test: crystal violet assay, cellular viability; type: cell-based; details: Homo sapiens, SK-OV-3, 48 hours
[12] = system: CFPAC-1 cells; test: crystal violet assay, cellular viability; type: cell-based; details: Homo sapiens, CFPAC-1, 48 hours

CC(=O)N(O)CCCCCNC(=O)CCC(=O)N(O)CCCCCNC(=O)CCC(=O)N(O)CCCCCN(CCCCCCCCCC[P+](c1ccccc1)(c1ccccc1)c1ccccc1)CCCCCCCCCC[P+](c1ccccc1)(c1ccccc1)c1ccccc1.[Cl-].[Cl-] [Compound 2, Triphenyl(3,14,25-trihydroxy-2,10,13,21,24-pentaoxo-31-(10-(triphenylphosphonio)decyl)-3,9,14,20,25,31-hexaazahentetracontan-41-yl)phosphonium chloride]
slope of the line (relative number of cells in relation to time) ([1]; 0-15 h, 1 μM): 1.14
slope of the line (relative number of cells in relation to time) ([1]; 0-15 h, 2 μM): 1.07
slope of the line (relative number of cells in relation to time) ([1]; 0-15 h, 5 μM): 0.83
slope of the line (relative number of cells in relation to time) ([1]; 0-36 h, 1 μM): 1.08
slope of the line (relative number of cells in relation to time) ([1]; 0-36 h, 2 μM): 0.90
slope of the line (relative number of cells in relation to time) ([1]; 0-36 h, 5 μM): 0.47
effect on cellular proliferation of non-malignant BJ cells, in words ([1]; Xcelligence, 5 μM): very mild and statistically non-significant effect
mean percentage of dead cells (AnnexinV/PI) ([2]; BT474, 5 μM): 18.6%
mean percentage of dead cells (AnnexinV/PI) ([2]; BT474, 10 μM): 39.9%
mean percentage of dead cells (AnnexinV/PI) ([2]; BT474, 20 μM): 92.5%
mean percentage of dead cells (AnnexinV/PI) ([3]; BT549, 5 μM): 31.8%
mean percentage of dead cells (AnnexinV/PI) ([3]; BT549, 10 μM): 52.3%
mean percentage of dead cells (AnnexinV/PI) ([3]; BT549, 20 μM): 80.4%
slope of the line (relative number of cells in relation to time) ([4]; MCF7, 0-15 h, 1 μM): 0.32
slope of the line (relative number of cells in relation to time) ([4]; MCF7, 0-15 h, 2 μM): 0.40
slope of the line (relative number of cells in relation to time) ([4]; MCF7, 0-15 h, 5 μM): 0.31
slope of the line (relative number of cells in relation to time) ([4]; MCF7, 0-36 h, 1 μM): 0.35
slope of the line (relative number of cells in relation to time) ([4]; MCF7, 0-36 h, 2 μM): −0.01
slope of the line (relative number of cells in relation to time) ([4]; MCF7, 0-36 h, 5 μM): −0.47
concentration at which the cytotoxic effect is seen ([4]; Xcelligence, MCF7): 5 µM
concentration with clear inhibition of proliferation ([4]; Xcelligence, MCF7): 1 µM
concentration with complete block of proliferation ([4]; Xcelligence, MCF7): 2 µM
Median-Effect Plot parameter m (slope) ([5]; 48 hours): 1.57
IC50 ([5]; Homo sapiens, BXPC-3, 48 h, read-out: Median-Effect Plot parameter IC50): 4.5 µM
IC50 ([6]; Homo sapiens, Chou-Talalay method, read-out: Median-Effect Plot parameter IC50): 5.89 µM
Median-Effect Plot parameter m (slope) [6]: 1.2778
mean percentage of dead cells (AnnexinV/PI) ([7]; MCF7, 5 μM): 35.6%
mean percentage of dead cells (AnnexinV/PI) ([7]; MCF7, 10 μM): 43.7%
mean percentage of dead cells (AnnexinV/PI) ([7]; MCF7, 20 μM): 64.0%
percentage of death cells by annexinV/PI staining ([7]; MCF7, ratio Ga:compound 2 0:1, 10 μM compound 2 alone): 35.3 (0.5)
speed of the movement ([8]; MCF7, 1 μM): 0.16 (0.06) μm*min^−1
travelled distance of an individual cell between frames ([8]; MCF7, 1 μM): 4.4 (1.4) μm
speed of the movement ([8]; MCF7, 2 μM): 0.13 (0.05) μm*min^−1
travelled distance of an individual cell between frames ([8]; MCF7, 2 μM): 3.9 (1.5) μm
speed of the movement ([8]; MCF7, 5 μM): 0.12 (0.07) μm*min^−1
travelled distance of an individual cell between frames ([8]; MCF7, 5 μM): 3.1 (0.7) μm
Selectivity index (IC50 non-malignant/IC50 malignant) ([9]; BJ vs MCF7, 48 hours): 12.43
IC50 ([9]; Homo sapiens, MCF7, 48 h, crystal violet, read-out: IC50 cellular viability): 1.2 µM
IC50 ([9]; Homo sapiens, MCF7, MCF7 Parental, read-out: IC50 crystal violet): 1.5 µM
viability at 1 µM ([9]; Homo sapiens, MCF7, 1 μM, 48 hrs, crystal violet, read-out: mean percentage of viable cells compared to non-treated controls): 56.9%
viability at 2 µM ([9]; Homo sapiens, MCF7, 2 μM, 48 hrs, crystal violet, read-out: mean percentage of viable cells compared to non-treated controls): 20%
viability at 5 µM ([9]; Homo sapiens, MCF7, 5 μM, 48 hrs, crystal violet, read-out: mean percentage of viable cells compared to non-treated controls): 10%
viability at 10 µM ([9]; Homo sapiens, MCF7, 10 μM, 48 hrs, crystal violet, read-out: mean percentage of viable cells compared to non-treated controls): 12.1%
Selectivity index (IC50 non-malignant/IC50 malignant) ([10]; BJ vs MDA-MB-231, 48 hours): 2.64
IC50 ([10]; Homo sapiens, MDA-MB-231, 48 h, read-out: IC50 cellular viability): 5.4 µM
IC50 [11]: 5.1 µM
IC50 [12]: 6.9 µM
